Reference: PubChem BioAssay AID248 (DTP/NCI, 2004)
Where “and” joins values, the source holds several entries; their conditions need not be identical. Identical values can stand only once. Inconclusive results and toxic doses are left out.

Test system: L1210 leukemia ip in BDF1 mice, survival T/C
Assay: NCI In Vivo Anticancer Drug Screen. Data for tumor model L1210 Leukemia (intraperitoneal) in B6D2F1 (BDF1) mice
Settings: endpoint: mean survival time, higher = longer survival
Method in brief: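 Value reflects the ratio of survival in compound-treated mice to survival in vehicle-treated controls, with both groups carrying the same transplanted tumor.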

[1] = dose: 100.0 mg/kg/injection, schedule: Q01DX009 (ip), vehicle: saline
[2] = dose: 200.0 mg/kg/injection, schedule: Q01DX009 (ip), vehicle: saline
[3] = dose: 100.0 mg/kg/injection, schedule: Q04DX002 (ip), vehicle: Klucel (hydroxypropylcellulose) (HPC)
[4] = dose: 100.0 mg/kg/injection, schedule: Q01DX009 (ip), vehicle: Klucel (hydroxypropylcellulose) (HPC)
[5] = dose: 200.0 mg/kg/injection, schedule: Q01DX009 (ip), vehicle: Klucel (hydroxypropylcellulose) (HPC)

## CCCCn1cnc2c(=S)nc[nH]c21
dose: 5.0 mg/kg/injection, schedule: Q01DX Z (ip), vehicle: carboxymethylcellulose (CMC)
  T/C: 98 % of control
dose: 8.0 mg/kg/injection, schedule: Q01DX Z (ip), vehicle: carboxymethylcellulose (CMC)
  T/C: 103 % of control
dose: 10.0 mg/kg/injection, schedule: Q01DX Z (ip), vehicle: carboxymethylcellulose (CMC)
  T/C: 102 % of control
dose: 16.0 mg/kg/injection, schedule: Q01DX Z (ip), vehicle: carboxymethylcellulose (CMC)
  T/C: 103 % of control
dose: 16.0 mg/kg/injection, schedule: Q01DX Z (ip), vehicle: saline
  T/C: 94 % of control
dose: 16.0 mg/kg/injection, schedule: Q01DX Z (oral), vehicle: carboxymethylcellulose (CMC)
  T/C: 109 % of control
dose: 20.0 mg/kg/injection, schedule: Q01DX Z (ip), vehicle: carboxymethylcellulose (CMC)
  T/C: 104 % of control
dose: 32.0 mg/kg/injection, schedule: Q01DX009 (ip), vehicle: saline
  T/C: 101 % of control
dose: 32.0 mg/kg/injection, schedule: Q01DX Z (ip), vehicle: carboxymethylcellulose (CMC)
  T/C: 120 % of control
dose: 32.0 mg/kg/injection, schedule: Q01DX Z (ip), vehicle: saline
  T/C: 97 % of control
dose: 32.0 mg/kg/injection, schedule: Q01DX Z (oral), vehicle: carboxymethylcellulose (CMC)
  T/C: 112 % of control
dose: 40.0 mg/kg/injection, schedule: Q01DX Z (ip), vehicle: carboxymethylcellulose (CMC)
  T/C: 112 % of control
dose: 64.0 mg/kg/injection, schedule: Q01DX009 (ip), vehicle: saline
  T/C: 115 % of control and 121 % of control
dose: 64.0 mg/kg/injection, schedule: Q01DX Z (ip), vehicle: saline
  T/C: 123 % of control
dose: 64.0 mg/kg/injection, schedule: Q01DX Z (oral), vehicle: carboxymethylcellulose (CMC)
  T/C: 117 % of control
dose: 86.0 mg/kg/injection, schedule: Q02DX010 (ip), vehicle: carboxymethylcellulose (CMC)
  T/C: 117 % of control
dose: 88.0 mg/kg/injection, schedule: Q02DX010 (ip), vehicle: carboxymethylcellulose (CMC)
  T/C: 116 % of control
dose: 100.0 mg/kg/injection, schedule: Q01DX015 (ip), vehicle: carboxymethylcellulose (CMC)
  T/C: 178 % of control
dose: 160.0 mg/kg/injection, schedule: Q01DX015 (ip), vehicle: carboxymethylcellulose (CMC)
  T/C: 152 % of control
dose: 225.0 mg/kg/injection, schedule: Q01DX015 (ip), vehicle: carboxymethylcellulose (CMC)
  T/C: 124 % of control
dose: 240.0 mg/kg/injection, schedule: Q01DX015 (ip), vehicle: carboxymethylcellulose (CMC)
  T/C: 116 % of control
dose: 256.0 mg/kg/injection, schedule: Q01DX009 (ip), vehicle: saline
  T/C: 121 % of control
dose: 256.0 mg/kg/injection, schedule: Q01DX Z (ip), vehicle: saline
  T/C: 100 % of control
dose: 320.0 mg/kg/injection, schedule: Q01DX015 (ip), vehicle: carboxymethylcellulose (CMC)
  T/C: 92 % of control
dose: 335.0 mg/kg/injection, schedule: Q01DX015 (ip), vehicle: carboxymethylcellulose (CMC)
  T/C: 98 % of control

## Cc1cccc2c1C(=O)OC2(CC(=O)O)c1ccccc1 (stereo not given)
dose: 37.5 mg/kg/injection, schedule: Q04DX002 (ip), vehicle: saline with Tween-80
  T/C: 101 % of control
dose: 75.0 mg/kg/injection, schedule: Q04DX002 (ip), vehicle: saline with Tween-80
  T/C: 101 % of control
dose: 150.0 mg/kg/injection, schedule: Q04DX002 (ip), vehicle: saline with Tween-80
  T/C: 101 % of control

## OC(C#CC(O)c1ccccc1)c1ccccc1 (stereo not given)
[1]
  T/C: 86 % of control
dose: 100.0 mg/kg/injection, schedule: Q04DX003 (ip), vehicle: saline with Tween-80
  T/C: 97 % of control
[2]
  T/C: 108 % of control
dose: 200.0 mg/kg/injection, schedule: Q04DX003 (ip), vehicle: saline with Tween-80
  T/C: 94 % of control
dose: 400.0 mg/kg/injection, schedule: Q04DX003 (ip), vehicle: saline with Tween-80
  T/C: 87 % of control

## CCN(CC)CC(=O)NCC(CCN1CCCCC1)(Cc1cccc2ccccc12)C(C)C (stereo not given)
dose: 12.5 mg/kg/injection, schedule: Q04DX003 (ip), vehicle: saline
  T/C: 106 % of control
dose: 25.0 mg/kg/injection, schedule: Q04DX003 (ip), vehicle: saline
  T/C: 98 % of control
dose: 50.0 mg/kg/injection, schedule: Q04DX003 (ip), vehicle: saline
  T/C: 97 % of control

## CN(C)S(=O)(=O)c1ccc(CCc2ccc(S(=O)(=O)N(C)C)cc2)cc1
dose: 50.0 mg/kg/injection, schedule: Q01DX001 (ip), vehicle: saline
  T/C: 93 % of control
dose: 100.0 mg/kg/injection, schedule: Q01DX001 (ip), vehicle: saline
  T/C: 91 % of control
dose: 200.0 mg/kg/injection, schedule: Q01DX001 (ip), vehicle: saline
  T/C: 91 % of control
dose: 400.0 mg/kg/injection, schedule: Q01DX001 (ip), vehicle: saline
  T/C: 96 % of control

## OC1OCC(Cc2ccc3c(c2)OCO3)C1Cc1ccc2c(c1)OCO2 (stereo not given)
[1]
  T/C: 91 % of control
[2]
  T/C: 99 % of control
dose: 400.0 mg/kg/injection, schedule: Q01DX009 (ip), vehicle: saline
  T/C: 88 % of control

## CC[N+](CC)(CC)CCCC[P+](CC)(CC)CC
dose: 12.0 mg/kg/injection, schedule: Q04DX003 (ip), vehicle: other
  T/C: 95 % of control
dose: 25.0 mg/kg/injection, schedule: Q04DX003 (ip), vehicle: other
  T/C: 90 % of control
dose: 50.0 mg/kg/injection, schedule: Q04DX003 (ip), vehicle: other
  T/C: 93 % of control

## Nc1nc(N)c(N=Nc2ccccc2)c(=O)[nH]1
dose: 50.0 mg/kg/injection, schedule: Q01DX001 (ip), vehicle: carboxymethylcellulose (CMC)
  T/C: 88 % of control
dose: 50.0 mg/kg/injection, schedule: Q04DX003 (ip), vehicle: carboxymethylcellulose (CMC)
  T/C: 94 % of control
dose: 100.0 mg/kg/injection, schedule: Q01DX001 (ip), vehicle: carboxymethylcellulose (CMC)
  T/C: 90 % of control
dose: 100.0 mg/kg/injection, schedule: Q04DX003 (ip), vehicle: carboxymethylcellulose (CMC)
  T/C: 93 % of control
dose: 200.0 mg/kg/injection, schedule: Q01DX001 (ip), vehicle: carboxymethylcellulose (CMC)
  T/C: 93 % of control
dose: 200.0 mg/kg/injection, schedule: Q04DX003 (ip), vehicle: carboxymethylcellulose (CMC)
  T/C: 94 % of control

## [Br][Bi]([Br])([c]1ccccc1)([c]1ccccc1)[c]1ccccc1
dose: 12.5 mg/kg/injection, schedule: Q04DX002 (ip), vehicle: Klucel (hydroxypropylcellulose) (HPC)
  T/C: 97 % of control
dose: 25.0 mg/kg/injection, schedule: Q04DX002 (ip), vehicle: Klucel (hydroxypropylcellulose) (HPC)
  T/C: 101 % of control
dose: 50.0 mg/kg/injection, schedule: Q04DX002 (ip), vehicle: Klucel (hydroxypropylcellulose) (HPC)
  T/C: 104 % of control
[3]
  T/C: 97 % of control

## Oc1ccc2ccccc2c1-c1c(O)ccc2ccccc12
dose: 12.5 mg/kg/injection, schedule: Q01DX Z (ip), vehicle: other
  T/C: 106 % of control
dose: 25.0 mg/kg/injection, schedule: Q01DX Z (ip), vehicle: other
  T/C: 103 % of control
dose: 50.0 mg/kg/injection, schedule: Q01DX Z (ip), vehicle: other
  T/C: 106 % of control
[4]
  T/C: 97 % of control
dose: 100.0 mg/kg/injection, schedule: Q01DX Z (ip), vehicle: other
  T/C: 116 % of control
dose: 100.0 mg/kg/injection, schedule: Q04DX003 (ip), vehicle: Klucel (hydroxypropylcellulose) (HPC)
  T/C: 111 % of control
[5]
  T/C: 94 % of control
dose: 200.0 mg/kg/injection, schedule: Q04DX003 (ip), vehicle: Klucel (hydroxypropylcellulose) (HPC)
  T/C: 94 % of control
dose: 400.0 mg/kg/injection, schedule: Q04DX003 (ip), vehicle: Klucel (hydroxypropylcellulose) (HPC)
  T/C: 103 % of control

## COC(=O)c1ccc(O)cc1
dose: 100.0 mg/kg/injection, schedule: Q04DX002 (ip), vehicle: saline
  T/C: 96 % of control
dose: 200.0 mg/kg/injection, schedule: Q04DX002 (ip), vehicle: saline
  T/C: 100 % of control
dose: 400.0 mg/kg/injection, schedule: Q04DX002 (ip), vehicle: saline
  T/C: 100 % of control

## CC1C(=O)Nc2ccccc2N1C(=O)CN1CCCC1 (stereo not given)
dose: 50.0 mg/kg/injection, schedule: Q01DX009 (ip), vehicle: saline
  T/C: 98 % of control
[1]
  T/C: 101 % of control
dose: 100.0 mg/kg/injection, schedule: Q04DX003 (ip), vehicle: saline
  T/C: 96 % of control
[2]
  T/C: 106 % of control
dose: 200.0 mg/kg/injection, schedule: Q04DX003 (ip), vehicle: saline
  T/C: 96 % of control
dose: 400.0 mg/kg/injection, schedule: Q04DX003 (ip), vehicle: saline
  T/C: 94 % of control

## Cc1cc(O)cc(C)c1C1=NCC(C)S1 (stereo not given)
[3]
  T/C: 104 % of control
dose: 200.0 mg/kg/injection, schedule: Q04DX002 (ip), vehicle: Klucel (hydroxypropylcellulose) (HPC)
  T/C: 90 % of control
dose: 400.0 mg/kg/injection, schedule: Q04DX002 (ip), vehicle: Klucel (hydroxypropylcellulose) (HPC)
  T/C: 90 % of control

## CN(C)C=Nc1cc2c(cc1Br)-c1ccccc1C2=O
[4]
  T/C: 101 % of control
[5]
  T/C: 95 % of control
dose: 400.0 mg/kg/injection, schedule: Q01DX009 (ip), vehicle: Klucel (hydroxypropylcellulose) (HPC)
  T/C: 93 % of control
